Here are results for 7 compounds from US4868210A, “Antihyperlipidemic and antiatherosclerotic compounds and compositions” (priority 1988, dated 1989).

The target of the assay is T1, acyl-CoA:cholesterol acyltransferase (ACAT) (Oryctolagus cuniculus, UniProt G1SFD9).
T1 construct: tissue preparation containing rabbit intestinal microsomes; from tissue; host or cells: rabbit intestinal microsomes
T1 sequence (G1SFD9 1-524): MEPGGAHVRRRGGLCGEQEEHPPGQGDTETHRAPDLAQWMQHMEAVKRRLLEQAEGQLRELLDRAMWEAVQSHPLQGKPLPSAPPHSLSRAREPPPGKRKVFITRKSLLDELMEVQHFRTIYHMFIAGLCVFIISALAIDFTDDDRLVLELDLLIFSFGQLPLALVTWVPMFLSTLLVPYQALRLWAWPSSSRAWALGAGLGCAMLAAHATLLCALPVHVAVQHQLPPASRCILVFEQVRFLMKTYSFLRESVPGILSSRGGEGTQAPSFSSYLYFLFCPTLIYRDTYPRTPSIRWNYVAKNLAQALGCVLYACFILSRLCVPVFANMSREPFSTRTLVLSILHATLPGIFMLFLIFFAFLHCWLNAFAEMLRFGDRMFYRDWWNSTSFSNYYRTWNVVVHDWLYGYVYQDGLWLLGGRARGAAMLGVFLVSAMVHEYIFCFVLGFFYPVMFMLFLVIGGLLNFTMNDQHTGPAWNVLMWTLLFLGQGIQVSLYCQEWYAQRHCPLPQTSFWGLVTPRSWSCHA
Description: In vitro ACAT inhibition (radiolabeled cholesterol oleate formation from radiolabeled oleic acid in rabbit intestinal microsomes). It is filed as biochemical. To be noted: concentration required to inhibit 50% the acylation of cholesterol by oleic acid. Here is the method:
The ability of representative compounds of the present invention to inhibit ACAT was measured using an in vitro test more fully described in Field, F. J. and Salone, R. G., Biochemica et Biophysica 712: 557-570 (1982). The test assesses the ability of a test compound to inhibit the acylation of cholesterol by oleic acid by measuring the amount of radiolabeled cholesterol oleate formed from radiolabeled oleic acid in a tissue preparation containing rabbit intestinal microsomes.

Consider `COc1ccc2c(c1)CC(CNC(=O)Nc1c(C(C)C)cccc1C(C)C)CC2` (stereo not shown) [Example 11, N-[2,6-bis(1-methylethyl)phenyl]-N'-[(1,2,3,4-tetrahydro-7-methoxy-2-naphthalenyl)methyl]urea], for which 84 nM corresponded to half-maximal inhibition (IC50).
For `CC(C)c1cccc(C(C)C)c1NC(=O)NC1COc2ccccc2C1` (stereo not shown) [Example 10, N-[2,6-bis(1-methylethyl)phenyl]-N'-(3,4-dihydro-2H-1-benzopyran-3-yl)urea], half-maximal inhibition (IC50) required 100 nM.
Turning to `CC(C)c1cccc(C(C)C)c1NC(=O)NCC1c2ccccc2-c2ccccc21` [Example 1, N-[2,6-bis(1-methylethyl)phenyl]-N'-(9H-fluoren-9-ylmethyl)urea], half-maximal inhibition (IC50) was put at 27 nM.
For the compound `CC(C)c1cccc(C(C)C)c1NC(=O)NC1CCc2ccccc2C1` (stereo not shown) [Example 9, N-[2,6-bis(1-methylethyl)phenyl]-N'-(1,2,3,4-tetrahydro-2-naphthalenyl)urea], 41 nM corresponded to half-maximal inhibition (IC50).
The value for `Cc1cccc(C)c1NC(=O)NC1CC(C)(C)c2ccccc2C1(C)C` (stereo not shown) [Example 12, N-(2,6-dimethylphenyl)-N'-(1,2,3,4-tetrahydro-1,1,4,4-tetramethyl-2-naphthalenyl)urea] was 270 nM.
Regarding `CC(C)c1cccc(C(C)C)c1NC(=O)NC1CCOc2ccccc2C1` (stereo not shown) [Example 8, N-[2,6-bis(1-methylethyl)phenyl]-N'-(2,3,4,5-tetrahydrobenzoxepin-4-yl)urea], the IC50 (commonly the point on the concentration scale where inhibition reaches its midpoint) came out at 52 nM.
Consider `CC(C)c1cccc(C(C)C)c1NC(=O)NC1CC(C)(C)c2ccccc2C1(C)C` (stereo not shown) [Example 13, N-[2,6-bis(1-methylethyl)phenyl]-N'-(1,2,3,4-tetrahydro-1,1,4,4-tetramethyl-2-naphthalenyl)urea], for which 89 nM corresponded to half-maximal inhibition (IC50).
